Assay results taken from PMC4884984, “Identification of approved and investigational drugs that inhibit hypoxia-inducible factor-1 signaling” (Oncotarget, 2016).
Entries after “also recorded” stand apart in the source; their conditions may differ. Read-outs that look alike come from different tables or passages of the source.

Legend:
Type in all cases: cell-based, human
[1] = test system: HIF-1α–NanoLuc; assay: HIF-1α–NanoLuc reporter gene assay (qHTS primary and confirmatory screens)
[2] = test system: hypoxia response element-beta-lactamase (HRE–bla); assay: HRE-bla reporter gene assay in ME-180 cells; conditions: for HRE–bla confirmatory Efficacy / IC50 / Emax / HRE–bla confirmatory IC50: Table S7, confirmatory screen; for IC50: read-out: HRE–bla confirmatory IC50; for Emax: read-out: HRE–bla confirmatory Efficacy; for Effect on HRE–bla transcriptional activity, in words: ME-180 cells
Description: (§1) Cell culture of HRE–bla ME-180 cells (Cat. No. K1644, Life Technologies) and HRE–bla assay were conducted according to a reported protocol [6]. […] The fluorescence signals (460/25 nm and 530/20 nm) of CCF4 and luminescence signals of CellTiter-Glo were acquired on an Envision and a ViewLux plate readers (Perkin Elmer), respectively.

[3] = test system: HIF-1α–NanoLuc HCT116 cells; assay: Viability (Luc): CellTiter-Glo counter screen in HIF-1α–NanoLuc cells; conditions: for Viability (Luc) confirmatory IC50: Table S7, 1% O2, 18 h; for IC50: Table S7, confirmatory screen, 1% O2, 18 h
[4] = test system: HRE–bla ME-180 cells; assay: Viability (BLA): CellTiter-Glo counter screen in HRE–bla cells; conditions: for IC50: Table S7, confirmatory screen, 1% O2, 18 h; for Viability (BLA) confirmatory IC50: Table S7, 1% O2, 18 h
Description: as §1

[5] = Homo sapiens, Table S2, primary screen, read-out: Pathway inhibitors (primary screen) HIF-1α–NanoLuc Activity Efficacy
[6] = Homo sapiens, Table S2, primary screen, read-out: Pathway inhibitors (primary screen) HIF-1α–NanoLuc Activity IC50
[7] = Homo sapiens, Table S2, validation, read-out: Pathway inhibitors (validation) HIF-1α–NanoLuc Activity Efficacy
[8] = Homo sapiens, Table S2, validation, read-out: Pathway inhibitors (validation) HIF-1α–NanoLuc Activity IC50
[9] = Homo sapiens, Table S1, primary screen, hypoxia 1% O2, 18 h, read-out: IC50 (primary screen, HIF-1α–NanoLuc assay)
[10] = Homo sapiens, Table S1, primary screen, read-out: Efficacy (primary screen, HIF-1α–NanoLuc assay)
[11] = Homo sapiens, Table S7, confirmatory screen, read-out: HIF-1α–NanoLuc confirmatory Efficacy
[12] = Homo sapiens, Table S7, confirmatory screen, read-out: HIF-1α–NanoLuc confirmatory IC50
[13] = Homo sapiens, Table S7, primary screen, read-out: HIF-1α–NanoLuc primary Efficacy
[14] = Homo sapiens, Table S7, primary screen, read-out: HIF-1α–NanoLuc primary IC50
[15] = Table S2, validation, read-out: Pathway inhibitors (validation) HIF-1α–NanoLuc Activity IC50
[16] = Homo sapiens, 18 h, read-out: IC50 (primary screen, HIF-1α–NanoLuc assay)
[17] = Homo sapiens, read-out: Efficacy (primary screen, HIF-1α–NanoLuc assay)

Cn1cc(C2=C(c3cn(C4CCN(Cc5ccccn5)CC4)c4ccccc34)C(=O)NC2=O)c2ccccc21 [Enzastaurin]
Emax [1, 5]: 39%
IC50 [1, 6]: 15 µM
Emax [1, 7]: 67 ± 6%
IC50 [1, 8]: 2.06 ± 3.3 µM

COc1cc(Nc2c(C#N)cnc3cc(OCCCN4CCN(C)CC4)c(OC)cc23)c(Cl)cc1Cl [Bosutinib]
Emax [1, 5]: 58%
IC50 [1, 6]: 11.9 µM

COc1cccc2c1C(=O)c1c(O)c3c(c(O)c1C2=O)C[C@@](O)(C(=O)CO)C[C@@H]3O[C@H]1C[C@H](N)[C@@H](O)[C@H](C)O1 [Epirubicin]
IC50 [1, 9]: 0.3 µM
Emax [1, 10]: 108%

COc1ccc2cc3[n+](cc2c1OC)CCc1cc2c(cc1-3)OCO2 [Berberine]
IC50 [1, 9]: 0.94 µM
Emax [1, 10]: 116%

COc1cccc2c1C(=O)c1c(O)c3c(c(O)c1C2=O)C[C@@](O)(C(=O)CO)C[C@@H]3O[C@H]1C[C@H](N)[C@H](O[C@@H]2CCCCO2)[C@H](C)O1 [Pirarubicin]
IC50 [1, 9]: 11.9 µM
Emax [1, 10]: 97%

CCCCCCCCCCCCCC[N+](C)(C)C.[Br-] [MitMAB]
HIF-1α–NanoLuc confirmatory Efficacy ([1]; Table S7, confirmatory screen): 99 ± 9%
IC50 ([1]; Table S7, confirmatory screen, read-out: HIF-1α–NanoLuc confirmatory IC50): 15.2 ± 7.16 µM
HIF-1α–NanoLuc primary Efficacy ([1]; Table S7, primary screen): 129%
IC50 ([1]; Table S7, primary screen, read-out: HIF-1α–NanoLuc primary IC50): 2.11 µM
HRE–bla confirmatory Efficacy [2]: 100 ± 5%
IC50 [2]: 5.73 ± 1.88 µM
Viability (Luc) confirmatory IC50 [3]: Inactive
IC50 [4]: 18.2 ± 2.51 µM

OCc1ccc(-c2nn(Cc3ccccc3)c3ccccc23)o1 [YC-1]
Effect on HIF-1α–NanoLuc level / luciferase activity, in words ([1]; HCT116 reporter cells): decrease in luciferase expression in a concentration response manner

CNC(=O)c1ccccc1Sc1ccc2c(/C=C/c3ccccn3)n[nH]c2c1 [Axitinib]
Pathway inhibitors (primary screen) HIF-1α–NanoLuc Activity IC50 ([1]; Table S2, primary screen): Inactive

CC(=O)Oc1ccc(C(c2ccc(OC(C)=O)cc2)c2ccccn2)cc1 [Bisacodyl]
Emax [1, 11]: 26 ± 6%
IC50 [1, 12]: 3.91 ± 0.7 µM
Emax [1, 13]: 110%
IC50 [1, 14]: 0.84 µM
Emax ([2]; Homo sapiens, ME-180): 93 ± 4%
IC50 ([2]; Homo sapiens, ME-180): 0.84 ± 0.1 µM
Viability (Luc) confirmatory IC50 [3]: Inactive
IC50 ([4]; Homo sapiens, ME-180): 0.69 ± 0.05 µM

Cn1cnc([N+](=O)[O-])c1Sc1ncnc2nc[nH]c12 [Azathioprine]
Emax [1, 11]: 50 ± 11%
IC50 [1, 12]: 8.07 ± 1.82 µM
Emax [1, 13]: 67%
IC50 [1, 14]: 3.42 µM
HRE–bla confirmatory IC50 [2]: Inactive
IC50 ([3]; Homo sapiens, HCT-116): 2.11 ± 0.53 µM
Viability (BLA) confirmatory IC50 [4]: Inactive

N#C/C(=C\c1ccc(-c2cc(Cl)ccc2Cl)o1)C(=O)Nc1cccc2ncccc12 [AGK2]
Pathway inhibitors (validation) HIF-1α–NanoLuc Activity Efficacy ([1]; Table S2, validation): 107± 9%
IC50 [1, 15]: 19.5 ± 2.49 µM
HIF-1α–NanoLuc confirmatory Efficacy ([1]; Table S7, confirmatory screen): 107 ± 9%
HRE–bla confirmatory Efficacy [2]: 63 ± 14%
IC50 [2]: 9.47 ± 3.45 µM
IC50 [3]: 21.2 ± 3.96 µM
IC50 [4]: 10.1 ± 2.97 µM

CC(C)C[C@H](NC(=O)[C@H](CCc1ccccc1)NC(=O)CN1CCOCC1)C(=O)N[C@@H](Cc1ccccc1)C(=O)N[C@@H](CC(C)C)C(=O)[C@@]1(C)CO1 [carfilzomib]
Effect on HIF-1α–NanoLuc level / luciferase activity, in words ([1]; HCT116 reporter cells): potently induced accumulation of HIF-1α–NanoLuc proteins
Effect on HRE–bla transcriptional activity, in words [2]: inhibited the transcriptional activity of HRE–bla

COc1cc([C@@H]2c3cc4c(cc3[C@H](O)[C@H]3COC(=O)[C@@H]23)OCO4)cc(OC)c1OC [Picropodphyllin]
Pathway inhibitors (primary screen) HIF-1α–NanoLuc Activity Efficacy ([1]; Table S2, primary screen): 159%
IC50 ([1]; Table S2, primary screen, read-out: Pathway inhibitors (primary screen) HIF-1α–NanoLuc Activity IC50): 0.53 µM
Pathway inhibitors (validation) HIF-1α–NanoLuc Activity Efficacy ([1]; Table S2, validation): 159%
IC50 [1, 15]: 0.53 µM

Cc1ccc(-c2cc(C(F)(F)F)nn2-c2ccc(S(N)(=O)=O)cc2)cc1 [Celecoxib]
IC50 [1, 9]: 10.6 µM
Emax [1, 10]: 43%

Cc1oncc1C(=O)Nc1ccc(C(F)(F)F)cc1 [Leflunomide]
HRE–bla confirmatory IC50 [2]: Inactive
Viability (BLA) confirmatory IC50 [4]: Inactive

COc1cccc2c1C(=O)c1c(O)c3c(c(O)c1C2=O)C[C@@](O)(C(=O)CO)C[C@@H]3O[C@H]1C[C@H](N2CCO[C@H](OC)C2)[C@H](O)[C@H](C)O1 [Nemorubicin]
IC50 [1, 16]: 0.08 µM
Emax [1, 17]: 111%

C[C@]1(O)C[C@@H](c2nc(-c3ccc4ccc(-c5ccccc5)nc4c3)c3c(N)nccn32)C1 [OSI-906]
IC50 ([1]; Homo sapiens, HCT-116, HCT116 reporter cells, hypoxia, read-out: HIF-1α–NanoLuc IC50): 6.23 ± 1.64 µM

O=C(CCCCCCC(=O)Nc1ccccc1)NO [Vorinostat]
Emax [1, 10]: 51%

COC(=O)C1=C(C)NC(C)=C(C(=O)OCCN2CCN(C(c3ccccc3)c3ccccc3)CC2)C1c1cccc([N+](=O)[O-])c1 (stereo not shown) [Manidipine]
IC50 [1, 9]: 9.44 µM
Emax [1, 10]: 86%

Cc1cc(C)c(/C=C2\C(=O)Nc3ccccc32)[nH]1 [SU-5416]
Emax ([2]; Homo sapiens, ME-180): 111 ± 12%
IC50 ([2]; Homo sapiens, ME-180): 12.8 ± 0.84 µM
Viability (BLA) confirmatory IC50 [4]: Inactive

N#Cc1c(Oc2ccc(F)c(NC(=O)Cc3cccc(C(F)(F)F)c3)c2)ccc2nc(NC(=O)C3CC3)sc12 [TAK-632]
Pathway inhibitors (validation) HIF-1α–NanoLuc Activity Efficacy ([1]; Table S2, validation): 85 ± 2%
IC50 [1, 15]: 1.41 ± 0.23 µM

CC[C@@]1(O)C(=O)OCc2c1cc1n(c2=O)Cc2c-1nc1ccccc1c2/C=N/OC(C)(C)C [Gimatecan]
IC50 [1, 9]: 0.6 µM
Emax [1, 10]: 108%
Emax [1, 5]: 108%

O=c1[nH]c(=S)[nH]c(-c2ccccc2)c1Cc1c(O)ccc2ccccc12 [Cambinol]
Pathway inhibitors (validation) HIF-1α–NanoLuc Activity IC50 ([1]; Table S2, validation): Inactive

COCCOC(=O)C1=C(C)NC(C)=C(C(=O)OC(C)C)C1c1cccc([N+](=O)[O-])c1 (stereo not shown) [Nimodipine]
IC50 [1, 9]: 15 µM
Emax [1, 10]: 132%

CCOC(=O)C1=C(C)NC(C)=C(C(=O)OC)C1c1cccc([N+](=O)[O-])c1 (stereo not shown) [Nitrendipine]
IC50 [1, 9]: 15 µM
Emax [1, 10]: 157%

CC[C@@H]1C(=O)N(C)c2cnc(Nc3ccc(C(=O)N[C@H]4CC[C@H](N5CCN(CC6CC6)CC5)CC4)cc3OC)nc2N1C(C)C [Volasertib]
Emax [1, 7]: 78 ± 14%
IC50 [1, 8]: 9.57 ± 5.6 µM

COC(=O)C1=C(C)NC(C)=C(C(=O)OCCc2ccc(N3CCN(C(c4ccccc4)c4ccccc4)CC3)cc2)C1c1cccc([N+](=O)[O-])c1 (stereo not shown) [Vatanidipine]
IC50 [1, 9]: 1.19 µM
Emax [1, 10]: 103%

COCCOC(=O)C1=C(C)NC(C)=C(C(=O)OC/C=C/c2ccccc2)C1c1cccc([N+](=O)[O-])c1 (stereo not shown) [Cilnidipine]
IC50 [1, 9]: 10.6 µM
Emax [1, 10]: 63%

O=c1c(O)c(-c2ccc(O)c(O)c2)oc2cc(O)cc(O)c12 [Quercetine]
Emax ([2]; Homo sapiens, ME-180): 84 ± 10%
IC50 ([2]; Homo sapiens, ME-180): 12.8 ± 0.84 µM
Viability (BLA) confirmatory IC50 [4]: Inactive

CC[C@H]1CN2CCc3cc(OC)c(OC)cc3[C@@H]2C[C@@H]1C[C@H]1NCCc2cc(OC)c(OC)cc21 [Emetine]
Emax ([2]; Homo sapiens, ME-180): 91 ± 1%
IC50 ([2]; Homo sapiens, ME-180): 0.29 ± 0.05 µM
Viability (BLA) confirmatory IC50 [4]: Inactive

Cc1ccc(NC(=O)c2ccc(CN3CCN(C)CC3)cc2)cc1Nc1nccc(-c2cccnc2)n1 [Imatinib]
Emax [1, 5]: 28%

Cn1nccc1Nc1nccc(-c2ccn([C@H](CO)c3ccc(Cl)c(F)c3)c(=O)c2)n1 [GDC-0994]
Emax [1, 7]: 63 ± 7%
IC50 [1, 8]: 6.11 ± 1.64 µM

C=C(C)[C@H]1Cc2c(ccc3c2O[C@@H]2COc4cc(OC)c(OC)cc4[C@@H]2C3=O)O1 [Rotenone]
IC50 [1, 16]: 0.19 µM
Emax [1, 17]: 91%

NC1(c2ccc(-c3nc4ccn5c(=O)[nH]nc5c4cc3-c3ccccc3)cc2)CCC1 [MK-2206]
Emax [1, 5]: 45%
IC50 [1, 6]: 0.42 µM

O=c1c(-c2ccc(O)cc2)coc2cc(O)cc(O)c12 [Genistein]
IC50 [1, 9]: 8.41 µM
Emax [1, 10]: 65%

Cc1c(O)cccc1C(=O)N[C@@H](CSc1ccccc1)[C@H](O)CN1C[C@H]2CCCC[C@H]2C[C@H]1C(=O)NC(C)(C)C [Nelfinavir]
IC50 [1, 9]: 21.1 µM
Emax [1, 10]: 120%

COc1ccccc1N1CCN(CC(O)COc2cccc3ccccc23)CC1 (stereo not shown) [Naftopidil]
HRE–bla confirmatory IC50 [2]: Inactive
Viability (BLA) confirmatory IC50 [4]: Inactive

CN1CC[C@H](c2c(O)cc(O)c3c(=O)cc(-c4ccccc4Cl)oc23)[C@H](O)C1 [Flavopiridol]
IC50 [1, 9]: 1.06 µM
Emax [1, 10]: 76%

COC(=O)C1=C(C)NC(C)=C(C(=O)OC(C)(C)CN(C)CCC(c2ccccc2)c2ccccc2)C1c1cccc([N+](=O)[O-])c1 (stereo not shown) [Lercanidipine]
IC50 [1, 9]: 11.9 µM
Emax [1, 10]: 63%

CC(C)C[C@H](NC(=O)[C@H](Cc1ccccc1)NC(=O)c1cnccn1)B(O)O [bortezomib]
Effect on HIF-1α–NanoLuc level / luciferase activity, in words ([1]; HCT116 reporter cells): resulted in protein accumulation and increased luciferase activity; also recorded: potently induced accumulation of HIF-1α–NanoLuc proteins
Effect on HRE–bla transcriptional activity, in words [2]: inhibited the transcriptional activity of HRE–bla

Cc1ccc(C(=O)Nc2ccc(S(=O)(=O)O)c3cc(S(=O)(=O)O)cc(S(=O)(=O)O)c23)cc1NC(=O)c1cccc(NC(=O)Nc2cccc(C(=O)Nc3cc(C(=O)Nc4ccc(S(=O)(=O)O)c5cc(S(=O)(=O)O)cc(S(=O)(=O)O)c45)ccc3C)c2)c1 [Suramin]
Emax [1, 7]: 41 ± 7%
IC50 [1, 8]: 24.5 ± 3.13 µM
